Source: patent publication US20120035112A1, “NEURONAL DIFFERENTIATION-INDUCING PEPTIDE AND USE THEREOF” (Toagosei Co., Ltd., priority 2009, published 2012)

Each sequence was assayed on mouse neuronal stem cells (assay: Evaluation of neuronal differentiation-inducing activities of synthesized peptides (β3-tubulin fluorescence antibody method, DAPI nuclear stain)). Conditions: peptide 0.5 μM, 7 days culture in mouse neuronal stem cell growth medium; compared with positive control (differentiation medium, FIG. 16).
Format: cell-based
Experimental: The neuronal differentiation-inducing activities of the synthesized peptides obtained in Example 1 (Samples 1 to 15) were examined.
That is, the sample peptide was added to a culture broth of neuronal stem cells collected from a mouse (mouse neuronal stem cell growth medium, a product of Cell Applications), and incubated. Addition was carried out to a concentration of 0.5 μM for each peptide.
Next, once 7 days had elapsed following peptide addition, each of the cultured cells was nuclear stained with DAPI (4′,6-diamidino-2-phenylindole) and examined with a fluorescence microscope. In addition, evaluation with a neuronal differentiation induction marker was carried out on the same samples. That is, using tubulin (specifically, β3-tubulin) as the marker for identifying neurons (nerve cells), the presence of tubulin (i.e., the presence or absence of neurons) within the culture solution was checked by a fluorescence antibody method using a fluorochrome-labeled anti-tubulin antibody for tubulin identification. The number of each figure corresponds to the number of the sample peptide used.
Each of these figures is a fluorescence micrograph (image) obtained by examining the state of neuronal differentiation by mouse neuronal stem cells following addition of the respective sample peptides and 7 days of culturing. The image was prepared by merging a DIC image, a DAPI nuclear stain image, and a fluorescence image showing the results of an investigation by an immune antibody method using fluorochrome-labeled anti-tubulin antibody.
(§1) As a positive control, mouse neuronal stem cells were cultured in a mouse neuronal stem cell differentiation medium (product of Cell Applications) without adding any of the peptides. When 7 days had elapsed following the start of culturing, treatment and fluorescence microscopic examination were carried out in the same way as described above.
as §1, with “negative” for “positive”, “[…]” for “differentiation”

Question: Which neuronal differentiation-inducing activity does the source give for LLLLAAWTVRAGKKRTLRKNDRKKR [Sample 8] here?
Answer: particularly high neuronal differentiation-inducing activities

Question: For LLLLAAWTARAGKKRTLRKNDRKKR [Sample 2], which neuronal differentiation-inducing activity is on record?
Answer: particularly high neuronal differentiation-inducing activities

Question: With LALLLLAAWTVRAGKKRTLRKNDRKKR [Sample 6] as the sequence, how does the neuronal differentiation-inducing activity read?
Answer: particularly high neuronal differentiation-inducing activities

Question: Which neuronal differentiation-inducing activity does the source give for ALLLLAAWTVRAGKKRTLRKNDRKKR [Sample 7] here?
Answer: particularly high neuronal differentiation-inducing activities
